For 19 compounds, EC50, AC50 and IC50 results are on record in ChEMBL document CHEMBL1201862, “PubChem BioAssay data set” (2004).

The target in test [1] is Voltage-dependent T-type calcium channel subunit alpha-1H (Homo sapiens, UniProt O95180). The class given is functional.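 Also: channel activity triggered by adding a high calcium stimulation buffer.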
The target in the next test is T1, Streptokinase A (Streptococcus pyogenes serotype M1, UniProt P10520).
T1 sequence (P10520 whole entry): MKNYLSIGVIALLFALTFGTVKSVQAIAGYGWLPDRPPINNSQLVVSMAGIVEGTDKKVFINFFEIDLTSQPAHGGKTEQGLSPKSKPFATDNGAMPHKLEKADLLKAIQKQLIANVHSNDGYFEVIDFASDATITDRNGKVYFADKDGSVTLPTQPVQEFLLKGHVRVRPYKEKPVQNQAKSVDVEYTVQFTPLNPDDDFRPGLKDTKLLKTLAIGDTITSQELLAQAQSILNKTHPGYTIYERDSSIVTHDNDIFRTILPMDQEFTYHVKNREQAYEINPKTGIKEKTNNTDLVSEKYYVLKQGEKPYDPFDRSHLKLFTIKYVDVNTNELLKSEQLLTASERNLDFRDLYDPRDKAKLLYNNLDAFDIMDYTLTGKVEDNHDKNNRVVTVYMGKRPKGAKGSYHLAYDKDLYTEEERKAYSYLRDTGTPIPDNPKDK
Put plainly: S. pyogenes streptokinase expression inhibitors, potency, dose response, plasminogen activation absorbance, OD405 (AID 1914).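 Also: secreted streptokinase activity via plasminogen activation per viability signal from cell pellet.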 The class given is functional, Streptococcus pyogenes M1 GAS.

The next test relates to Streptococcus. Nature of the test: Group A Streptococcus viability loss, dose response, counter-screen for streptokinase expression inhibitor project, luminescence, BacTiterGlo (AID 1915).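 Also: potency for reduction of bacterial viability or growth.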 Type of test: functional, organism-based.
The test system of test [2] is Streptococcus sp. 'group A'. Put plainly: growth inhibition of control SK(-) GAS strain, dose response, counter-screen for streptokinase expression inhibitor project, luminescence, kanamycin, BacTiterGlo, confirmation (AID 1900). The class given is functional, organism-based.
Test [3] can be described thus: ZM109 Env clade C HIV-1 fusion inhibitors, dose response, HeLa effector, CEM target cells, luciferase, cherry-pick (AID 652058). The class given is functional, cell-based.
Test [4] can be described thus: off-target signal loss in HeLa-CEM21 co-culture – HeLa F-luc CTL cells, cherry-picked, counter-screen for HIV-1 Env fusion inhibitor project, dose response (AID 652040).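 Also: potency for signal decrease marking cytotoxic or nonspecific inhibition.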 Type of test: functional, cell-based.
A short description of test [5]: inhibitors of clade B AD8 Env fusion, dose response, cell-based, cherry-pick (AID 652062).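 Also: luciferase signal from cell-cell fusion driven by HIV-1 clade B AD8 Env; potency is for inhibitors of fusion seen as a drop in luminescence.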 Type of test: functional.
The nature of test [6]: inhibitors of HIV Env-driven cell fusion, dose response, cherry-pick (AID 652057). The class given is functional, cell-based.
The target in test [7] is Peroxisome proliferator-activated receptor gamma/Nuclear receptor coactivator 2 (Homo sapiens, UniProt P37231). Put plainly: TR-FRET dose response biochemical High Throughput Screening assay for agonists of the steroid receptor coactivator 2 (SRC-2) recruitment by the peroxisome proliferator-activated receptor gamma (PPAR gamma): non-selective agonists. [Related pubchem assays: 1297, 1032 ]. Type of test: functional.

Test [8] addresses Peroxisome proliferator-activated receptor gamma/Nuclear receptor coactivator 3 (Homo sapiens, UniProt P37231). Put plainly: TR-FRET dose response biochemical High Throughput Screening assay for agonists of the steroid receptor coactivator 3 (SRC-3) recruitment by the peroxisome proliferator-activated receptor gamma (PPAR gamma): non-selective agonists. [Related pubchem assays: 1301 (Confirmation screen.), 1048 (Primary screen.)]. The class given is functional.

Test [9] deals with Peroxisome proliferator-activated receptor gamma/Nuclear receptor coactivator 1 (Homo sapiens, UniProt P37231). Nature of the test: TR-FRET dose response biochemical High Throughput Screening assay for agonists of the steroid receptor coactivator 1 (SRC-1) recruitment by the peroxisome proliferator-activated receptor gamma (PPAR gamma): non-selective agonists. [Related pubchem assays (depositor defined):AID1300, AID1808, AID504735, AID631]. The class given is protein assay.
Peroxisome proliferator-activated receptor gamma/Nuclear receptor coactivator 1, sequence (P37231 whole entry): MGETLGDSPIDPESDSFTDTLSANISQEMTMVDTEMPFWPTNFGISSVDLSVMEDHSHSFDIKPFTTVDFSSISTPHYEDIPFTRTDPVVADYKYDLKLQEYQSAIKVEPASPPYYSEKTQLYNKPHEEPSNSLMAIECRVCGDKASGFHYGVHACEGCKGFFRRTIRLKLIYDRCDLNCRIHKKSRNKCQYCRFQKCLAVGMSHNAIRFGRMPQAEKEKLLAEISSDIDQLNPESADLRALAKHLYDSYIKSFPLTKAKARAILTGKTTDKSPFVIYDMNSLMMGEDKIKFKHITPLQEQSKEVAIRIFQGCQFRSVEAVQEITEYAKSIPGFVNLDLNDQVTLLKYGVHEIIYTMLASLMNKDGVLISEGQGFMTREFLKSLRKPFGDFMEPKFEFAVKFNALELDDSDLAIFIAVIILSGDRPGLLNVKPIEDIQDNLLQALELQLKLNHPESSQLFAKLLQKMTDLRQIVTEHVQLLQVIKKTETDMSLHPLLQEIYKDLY
Peroxisome proliferator-activated receptor gamma/Nuclear receptor coactivator 1, sequence (Q15788 whole entry, further chain): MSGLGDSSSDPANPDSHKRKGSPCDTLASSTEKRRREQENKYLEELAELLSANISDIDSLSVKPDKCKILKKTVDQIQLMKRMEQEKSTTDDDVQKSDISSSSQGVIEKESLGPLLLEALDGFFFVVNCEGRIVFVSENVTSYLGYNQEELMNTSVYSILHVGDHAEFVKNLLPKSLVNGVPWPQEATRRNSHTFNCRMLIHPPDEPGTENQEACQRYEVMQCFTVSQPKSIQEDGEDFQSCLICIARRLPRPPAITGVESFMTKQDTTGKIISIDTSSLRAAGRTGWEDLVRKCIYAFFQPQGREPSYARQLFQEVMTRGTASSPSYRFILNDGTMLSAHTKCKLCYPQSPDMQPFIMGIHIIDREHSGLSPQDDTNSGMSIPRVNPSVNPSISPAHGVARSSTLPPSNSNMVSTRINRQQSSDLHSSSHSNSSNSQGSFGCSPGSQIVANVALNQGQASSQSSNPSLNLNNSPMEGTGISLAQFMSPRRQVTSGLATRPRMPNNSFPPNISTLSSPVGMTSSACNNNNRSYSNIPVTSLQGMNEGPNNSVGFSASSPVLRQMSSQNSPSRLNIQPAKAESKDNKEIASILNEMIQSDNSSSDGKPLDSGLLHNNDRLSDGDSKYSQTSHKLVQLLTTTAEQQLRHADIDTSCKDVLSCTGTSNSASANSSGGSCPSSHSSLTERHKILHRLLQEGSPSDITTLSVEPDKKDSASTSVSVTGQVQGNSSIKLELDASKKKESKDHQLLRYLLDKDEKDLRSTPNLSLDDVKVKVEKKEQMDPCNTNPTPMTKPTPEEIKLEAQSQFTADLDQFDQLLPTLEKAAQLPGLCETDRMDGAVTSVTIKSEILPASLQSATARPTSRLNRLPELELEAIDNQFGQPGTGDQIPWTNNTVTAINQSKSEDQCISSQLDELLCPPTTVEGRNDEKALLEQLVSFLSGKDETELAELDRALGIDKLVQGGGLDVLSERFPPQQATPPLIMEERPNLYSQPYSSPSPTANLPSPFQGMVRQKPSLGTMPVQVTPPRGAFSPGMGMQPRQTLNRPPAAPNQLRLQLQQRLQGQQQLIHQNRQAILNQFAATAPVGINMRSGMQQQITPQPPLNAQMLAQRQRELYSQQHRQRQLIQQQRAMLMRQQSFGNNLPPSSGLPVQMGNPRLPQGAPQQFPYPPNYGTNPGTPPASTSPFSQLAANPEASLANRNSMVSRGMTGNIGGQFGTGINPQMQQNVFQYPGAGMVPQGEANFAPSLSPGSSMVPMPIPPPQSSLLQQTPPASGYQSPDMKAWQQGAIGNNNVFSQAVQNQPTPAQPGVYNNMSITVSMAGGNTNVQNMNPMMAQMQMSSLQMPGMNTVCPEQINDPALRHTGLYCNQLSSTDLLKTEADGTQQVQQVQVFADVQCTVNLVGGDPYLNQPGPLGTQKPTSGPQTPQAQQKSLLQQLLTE

In test [10] the target is DNA dC->dU-editing enzyme APOBEC-3A (Homo sapiens, UniProt P31941). Put plainly: Dose Response confirmation of small molecule APOBEC3A DNA Deaminase Inhibitors via a fluorescence-based single-stranded DNA deaminase assay. [Related pubchem assays (depositor defined):AID493011, AID493024]. The class given is functional.
DNA dC->dU-editing enzyme APOBEC-3A, sequence (P31941 whole entry): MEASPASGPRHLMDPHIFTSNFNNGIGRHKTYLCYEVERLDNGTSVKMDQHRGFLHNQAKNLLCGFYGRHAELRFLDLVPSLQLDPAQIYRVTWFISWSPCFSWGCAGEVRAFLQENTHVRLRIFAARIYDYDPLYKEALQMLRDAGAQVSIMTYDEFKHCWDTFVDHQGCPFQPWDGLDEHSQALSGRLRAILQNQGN
The target in test [11] is DNA dC->dU-editing enzyme APOBEC-3G (Homo sapiens, UniProt Q9HC16). Type of test: functional.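 Also: Dose-response counterscreen measuring inhibition of APOBEC3G DNA deaminase activity, run while confirming APOBEC3A inhibitors.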
DNA dC->dU-editing enzyme APOBEC-3G, sequence (Q9HC16 whole entry): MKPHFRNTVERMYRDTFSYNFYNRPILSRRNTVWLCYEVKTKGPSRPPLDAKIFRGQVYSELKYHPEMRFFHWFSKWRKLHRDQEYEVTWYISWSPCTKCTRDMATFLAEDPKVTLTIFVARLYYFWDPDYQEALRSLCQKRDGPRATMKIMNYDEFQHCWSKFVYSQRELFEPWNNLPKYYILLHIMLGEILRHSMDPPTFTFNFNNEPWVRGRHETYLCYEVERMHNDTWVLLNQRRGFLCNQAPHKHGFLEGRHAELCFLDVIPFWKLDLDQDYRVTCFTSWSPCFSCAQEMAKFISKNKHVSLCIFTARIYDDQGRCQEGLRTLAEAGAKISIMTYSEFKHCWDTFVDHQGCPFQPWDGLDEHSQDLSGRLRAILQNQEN
The nature of test [12]: cytotoxicity toward NIH3T3 fibroblasts, dose response, counter-screen, cell-based, ATP luminescence, mouse fibroblasts (AID 2010).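 Also: cells exposed to compound for about 90 hours before reading.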 The class given is functional.
The nature of test [13]: inhibitors of intracellular T. cruzi replication, confirmation, NIH3T3 host cells, beta-gal luminescence (AID 2044).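 Also: intracellular parasites grown in NIH/3T3 mouse fibroblasts as host cells; luminescent beta-galactosidase reporter signal from transgenic T. cruzi replicating inside host cells; inhibitors lower the luminescence signal.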 The class given is functional, cell-based.
Test [14] has as its target T2, Long-chain-fatty-acid--AMP ligase FadD28 (Mycobacterium tuberculosis, UniProt P9WQ59).
T2 sequence (P9WQ59 whole entry): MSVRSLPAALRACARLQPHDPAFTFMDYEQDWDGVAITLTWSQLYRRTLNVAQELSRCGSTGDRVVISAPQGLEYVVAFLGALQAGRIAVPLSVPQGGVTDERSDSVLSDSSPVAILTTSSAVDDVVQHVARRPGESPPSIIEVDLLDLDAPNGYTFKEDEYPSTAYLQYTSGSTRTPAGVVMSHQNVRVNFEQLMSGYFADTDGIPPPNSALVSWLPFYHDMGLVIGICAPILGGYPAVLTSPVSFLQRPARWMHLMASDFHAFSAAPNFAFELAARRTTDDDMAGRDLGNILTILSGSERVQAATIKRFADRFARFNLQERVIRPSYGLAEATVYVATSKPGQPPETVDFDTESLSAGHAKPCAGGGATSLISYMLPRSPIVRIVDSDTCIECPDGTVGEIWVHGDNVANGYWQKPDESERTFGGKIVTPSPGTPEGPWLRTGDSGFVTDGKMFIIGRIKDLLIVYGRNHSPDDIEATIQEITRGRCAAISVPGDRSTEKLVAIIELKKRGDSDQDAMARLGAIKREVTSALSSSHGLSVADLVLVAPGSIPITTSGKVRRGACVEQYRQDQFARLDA
Put plainly: Fluorescence polarization aasay to screen for inhibitors that compete for the binding of FadD28 to a bisubstrate Measured in Biochemical System Using Plate Reader - 2147-01_Inhibitor_Dose_CherryPick_Activity. The class given is functional, Mycobacterium tuberculosis H37Rv.

The next test deals with INS1. Put plainly: beta cell apoptosis inhibitors, cytokine rescue, dose response, luminescence, retest (AID 449756).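 Also: cell death triggered by IL-1 beta plus TNF-alpha plus IFN-gamma mixture; protective hits raise ATP signal compared with cytokine alone wells.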 Type of test: functional, cell-based. The note with it: Rattus norvegicus.
Test [15] addresses T3, Heat shock factor protein 1 (Mus musculus, UniProt P38532).
T3 sequence (P38532 whole entry): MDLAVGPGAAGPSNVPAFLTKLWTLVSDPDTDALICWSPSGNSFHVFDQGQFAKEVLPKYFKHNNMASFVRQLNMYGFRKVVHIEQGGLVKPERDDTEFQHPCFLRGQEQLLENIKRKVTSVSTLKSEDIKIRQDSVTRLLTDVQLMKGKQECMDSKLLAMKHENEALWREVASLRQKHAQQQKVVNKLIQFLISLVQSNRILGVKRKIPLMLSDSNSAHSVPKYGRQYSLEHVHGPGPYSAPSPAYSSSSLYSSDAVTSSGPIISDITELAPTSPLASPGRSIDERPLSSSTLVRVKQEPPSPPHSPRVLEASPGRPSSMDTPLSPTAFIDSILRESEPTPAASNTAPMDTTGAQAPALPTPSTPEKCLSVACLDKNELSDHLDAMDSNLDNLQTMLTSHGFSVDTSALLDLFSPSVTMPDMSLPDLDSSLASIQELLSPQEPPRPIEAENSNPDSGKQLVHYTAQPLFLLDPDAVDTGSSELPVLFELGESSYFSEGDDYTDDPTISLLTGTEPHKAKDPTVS
Put plainly: HSF1 potentiators in luciferase reporter cells, confirmation, cell-based, NIH3T3, luminescence, dose retest (AID 435004).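 Also: stress induced by proteasome inhibitor MG132 added 30 min after compound; luciferase reporter driven by HSF1 response element in NIH3T3 cells; actives raise luminescence as potentiators of the MG132 stress response.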 Type of test: functional.

A further test is described as follows: cells. The class given is functional.
The target of test [16] is T4, Calpain-2 catalytic subunit (Sus scrofa, UniProt P43367).
T4 sequence (P43367 whole entry): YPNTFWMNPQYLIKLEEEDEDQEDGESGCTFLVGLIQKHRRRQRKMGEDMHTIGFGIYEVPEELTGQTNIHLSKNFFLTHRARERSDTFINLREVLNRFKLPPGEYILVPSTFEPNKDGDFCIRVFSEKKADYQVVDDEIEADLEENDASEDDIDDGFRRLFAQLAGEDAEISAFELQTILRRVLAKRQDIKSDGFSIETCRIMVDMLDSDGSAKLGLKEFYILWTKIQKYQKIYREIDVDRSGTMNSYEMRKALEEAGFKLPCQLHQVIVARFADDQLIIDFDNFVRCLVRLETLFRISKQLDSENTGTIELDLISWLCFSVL
Nature of the test: pig calpain II inhibitor potency, dose response, biochemical, fluorogenic peptide substrate (AID 1420). The class given is functional.

For a further test, the target named is Paired box protein Pax-8 (Homo sapiens, UniProt Q06710). Nature of the test: inhibitors of PAX8-driven TPO luciferase reporter, dose response, RMG-I cells, cherry-pick (AID 687027).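 Also: luciferase reporter driven by Pax8 target thyroperoxidase promoter measured by SteadyGlo luminescence.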 Type of test: functional, cell-based.

Active and inactive are the calls of the source.

Voltage-dependent T-type calcium channel subunit alpha-1H, sequence (O95180 whole entry): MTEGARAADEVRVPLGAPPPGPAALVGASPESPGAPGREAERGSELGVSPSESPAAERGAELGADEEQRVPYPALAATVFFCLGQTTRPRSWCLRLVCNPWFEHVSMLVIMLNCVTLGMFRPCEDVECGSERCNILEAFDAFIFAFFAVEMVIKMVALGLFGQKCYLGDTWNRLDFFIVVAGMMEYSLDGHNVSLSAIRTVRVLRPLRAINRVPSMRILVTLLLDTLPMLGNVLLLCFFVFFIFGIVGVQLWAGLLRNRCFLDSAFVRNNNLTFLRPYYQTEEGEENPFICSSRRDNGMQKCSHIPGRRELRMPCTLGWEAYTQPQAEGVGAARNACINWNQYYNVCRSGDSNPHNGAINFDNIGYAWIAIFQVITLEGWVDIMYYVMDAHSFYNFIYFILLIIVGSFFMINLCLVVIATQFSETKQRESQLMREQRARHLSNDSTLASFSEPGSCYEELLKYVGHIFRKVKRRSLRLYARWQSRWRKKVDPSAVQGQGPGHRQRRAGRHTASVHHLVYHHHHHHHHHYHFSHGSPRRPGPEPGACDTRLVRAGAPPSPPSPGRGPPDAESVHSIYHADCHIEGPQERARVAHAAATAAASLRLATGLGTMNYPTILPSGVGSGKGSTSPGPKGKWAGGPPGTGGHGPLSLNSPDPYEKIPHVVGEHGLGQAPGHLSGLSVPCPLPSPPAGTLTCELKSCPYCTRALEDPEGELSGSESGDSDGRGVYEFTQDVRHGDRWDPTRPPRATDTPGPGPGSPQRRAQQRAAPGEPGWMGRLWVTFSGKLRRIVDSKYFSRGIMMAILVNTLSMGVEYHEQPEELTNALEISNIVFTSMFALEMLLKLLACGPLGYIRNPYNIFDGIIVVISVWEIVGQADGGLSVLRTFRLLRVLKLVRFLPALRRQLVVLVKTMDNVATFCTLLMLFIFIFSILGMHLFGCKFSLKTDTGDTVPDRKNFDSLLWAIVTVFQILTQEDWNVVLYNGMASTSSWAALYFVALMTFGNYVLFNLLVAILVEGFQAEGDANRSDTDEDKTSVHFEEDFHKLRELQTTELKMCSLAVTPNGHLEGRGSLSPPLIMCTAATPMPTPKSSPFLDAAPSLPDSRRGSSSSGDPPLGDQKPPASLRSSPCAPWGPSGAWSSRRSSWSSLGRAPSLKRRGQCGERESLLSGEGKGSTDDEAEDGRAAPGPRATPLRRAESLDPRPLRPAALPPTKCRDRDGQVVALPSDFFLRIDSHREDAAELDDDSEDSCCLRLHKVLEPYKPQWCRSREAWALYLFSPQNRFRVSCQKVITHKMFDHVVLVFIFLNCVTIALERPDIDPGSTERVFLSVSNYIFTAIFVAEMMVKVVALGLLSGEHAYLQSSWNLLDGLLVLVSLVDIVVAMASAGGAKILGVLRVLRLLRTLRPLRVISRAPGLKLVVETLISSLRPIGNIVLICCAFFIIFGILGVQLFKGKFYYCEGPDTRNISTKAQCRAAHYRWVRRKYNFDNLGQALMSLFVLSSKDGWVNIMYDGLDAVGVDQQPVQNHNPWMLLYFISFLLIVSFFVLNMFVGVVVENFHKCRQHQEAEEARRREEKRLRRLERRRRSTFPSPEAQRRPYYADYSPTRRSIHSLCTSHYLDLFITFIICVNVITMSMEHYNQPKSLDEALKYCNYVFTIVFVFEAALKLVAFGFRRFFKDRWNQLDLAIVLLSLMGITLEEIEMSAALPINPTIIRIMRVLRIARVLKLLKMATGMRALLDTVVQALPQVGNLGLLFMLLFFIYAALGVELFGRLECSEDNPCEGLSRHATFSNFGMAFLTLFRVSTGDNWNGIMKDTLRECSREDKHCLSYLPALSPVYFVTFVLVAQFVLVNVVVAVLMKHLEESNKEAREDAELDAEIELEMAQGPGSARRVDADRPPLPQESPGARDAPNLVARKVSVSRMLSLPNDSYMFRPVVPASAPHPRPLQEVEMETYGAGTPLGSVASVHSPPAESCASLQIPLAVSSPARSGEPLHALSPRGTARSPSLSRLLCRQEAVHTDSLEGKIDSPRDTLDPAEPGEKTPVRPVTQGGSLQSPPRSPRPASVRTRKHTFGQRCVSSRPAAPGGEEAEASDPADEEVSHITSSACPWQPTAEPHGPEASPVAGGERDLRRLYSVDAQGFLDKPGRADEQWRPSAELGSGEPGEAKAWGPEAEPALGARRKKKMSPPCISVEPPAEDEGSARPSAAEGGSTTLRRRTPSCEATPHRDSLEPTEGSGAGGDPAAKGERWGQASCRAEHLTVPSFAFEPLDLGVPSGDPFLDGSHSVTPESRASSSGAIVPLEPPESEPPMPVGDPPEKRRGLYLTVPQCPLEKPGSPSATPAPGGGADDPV

`O=C(CN1CCc2ccccc2C1)Nc1ccccc1N1CCCCCC1`: the EC50 in [1] is 8.39 µM (active); at Streptokinase A it was 13 µM (active); with Streptococcus it was 13.3 µM (active); in test [2], 6.54 µM (active).

Take `Cc1ccc(N2C(=O)N3[C@H](c4cccc(C)c4)[C@@H]4C(=O)N(Cc5ccccc5)C(=O)[C@@H]4[C@]3(C)C2=O)cc1`: the AC50 in [3] was 1.2 µM (active); in [4], 3.88 µM (active); in [5], 2.33 µM (active); in test [6] it was 3.36 µM (active).

With `O=C(Nc1ccc(N2CCN(C(=O)c3ccccc3)CC2)c(Cl)c1)c1cccnc1`, the EC50 at Streptokinase A was > 150 µM (not active); in the test on Streptococcus, 14.7 µM (active); in test [2], 12.4 µM (active). The values for the AC50 in test [4] and in test [5] were 20.5 µM (active) and 12.6 µM (active), respectively.

Consider `Cc1ccc2cc(C#N)c(NCCNC(=O)C3CC3)nc2c1C`, for which the AC50 in test [3] was 4.47 µM (active); in [4], 2.96 µM (active); in test [5] it was 6.25 µM (active); in test [6], 4.5 µM (active).

Take `O=C(CCC1N=C2c3ccccc3N=C(SCc3ccccc3Cl)N2C1=O)NCc1ccco1` (configuration not stated): the EC50 in test [1] is 14 µM (active).

With `N#Cc1cc2c(nc1SCc1ccccc1)CCCCC2`, the EC50 in [7] was 12.7 µM (not active); in test [8], > 79.4 µM (not active); in test [9], > 8.82 µM (inactive).

On to `O=C(Nc1nnc(-c2ccc3c(c2)CCCC3)o1)C1COc2ccccc2O1` (configuration not stated), for which the EC50 in test [1] was 1.37 µM (active).

With `O=C(CSc1nnnn1-c1ccccc1)N1CCc2ccccc21`, the IC50 in test [10] was 6.17 µM (active); in test [11], 4.32 µM (active).

With `Cc1ccc(C)c(CS(=O)(=O)c2cn(CC(=O)N3CCC(C)CC3)c3ccccc23)c1`, the AC50 in test [3] is 3.03 µM (active); in [4] it was 3.13 µM (active); in test [5], 2.04 µM (active); in test [6] it was 2.82 µM (active).

In the case of `CCn1c(=O)cc(SCC(=O)Nc2ccc(OC)c(OC)c2)c2ccccc21`, the EC50 in test [7] is 53.8 µM (not active); in test [8], > 79.4 µM (not active); in [9], > 79.4 µM (inactive).

For the compound `N=c1c2c(-c3ccccc3)c(-c3ccccc3)n(Cc3ccco3)c2ncn1CCCN1CCOCC1`, the EC50 in [12] was > 60 µM (not active); in test [13], 1.49 µM (active); in test [15] it was > 260 µM (inactive). For the same compound, the values for the concentration at half-maximal activity (AC50) (in [14]; in the test with INS1) were 77.3 µM (active) and 14.3 µM (active), respectively.

Turning to `COc1cccc(OCC(O)CN2CCC(Cc3ccccc3)CC2)c1` (configuration not stated), the EC50 in test [1] was 4.62 µM (active).

For the compound `CC(=O)c1ccc(S(=O)(=O)N2Cc3ccccc3CC2C(=O)O)cc1` (configuration not stated), the IC50 in test [10] is 14 µM (active); in [11], 43.7 µM (active).

Turning to `CC(C)(C)c1ccc(OCCC(=O)Nc2cccc(S(=O)(=O)N3CCOCC3)c2)cc1`, the AC50 in [4] was 48.2 µM (active); in test [5], 53.1 µM (active); in [6], 22.2 µM (active).

In the case of `COc1ccc2[nH]c(O)c(N=O)c2c1`, the IC50 in test [10] is 2.64 µM (active); in [11], 4.41 µM (active).

`CSC1=NP(=S)(SC)N(C)c2nc3n(c21)CCC3` (configuration not stated): the EC50 in test [7] is > 79.4 µM (not active); in [8], > 79.4 µM (not active); in test [9] it was > 79.4 µM (inactive).

Take `CN1CCN(c2ccc(Cl)cc2NC(=O)CC2OC(=O)c3ccccc32)CC1` (configuration not stated): the IC50 in test [10] is 3.24 µM (active); in test [11] it was 2.9 µM (active).

With `CC(/C=C(\O)c1ccncc1)=N\c1ccccc1O`, the EC50 in test [1] is 3.26 µM (active). For the same compound, the IC50 in “cells” was 3.1 µM (active).

For `COc1cc(/C=N/NS(=O)(=O)c2ccc(C)cc2)ccc1OCc1ccc(C(=O)O)cc1`, the IC50 in test [16] is listed as > 50 µM (not active). Besides, the concentration at half-maximal activity (AC50) on Paired box protein Pax-8 is 23.9 µM (active); in [3], 16.1 µM (active); in [4], 3.18 µM (active); in test [5] it was 8.31 µM (active); in test [6] it was 2.5 µM (active).
